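Tested at 5 concentrations; 48 h exposure; 96-well plates; endpoints linearly interpolated, else capped at highest concentration. At the TGI there is no net growth.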
What was measured:
Experiment in all cases: NCI tumour cell line growth inhibition, 48 h
MOLT-4 leukemia = test system: MOLT-4 leukemia
SK-MEL-5 melanoma = test system: SK-MEL-5 melanoma
HCT-116 colon = test system: HCT-116 colon
MCF7 breast = test system: MCF7 breast
MDA-MB-435 = test system: MDA-MB-435
SNB-75 CNS = test system: SNB-75 CNS
EKVX NSCLC = test system: EKVX NSCLC
SR leukemia = test system: SR leukemia
KM12 colon = test system: KM12 colon
HT29 colon = test system: HT29 colon
OVCAR-8 ovarian = test system: OVCAR-8 ovarian
SF-268 CNS = test system: SF-268 CNS
SNB-19 CNS = test system: SNB-19 CNS
HOP-62 NSCLC = test system: HOP-62 NSCLC
BT-549 breast = test system: BT-549 breast
RXF 393 renal = test system: RXF 393 renal
NCI-H226 lung = test system: NCI-H226 lung
A549 NSCLC = test system: A549 NSCLC
UACC-257 melanoma = test system: UACC-257 melanoma
TK-10 renal = test system: TK-10 renal
A498 renal = test system: A498 renal
K-562 leukemia = test system: K-562 leukemia
CAKI-1 renal = test system: CAKI-1 renal
NCI/ADR-RES ovarian = test system: NCI/ADR-RES ovarian
MDA-MB-231 breast = test system: MDA-MB-231 breast
COLO 205 colon = test system: COLO 205 colon
SK-MEL-2 melanoma = test system: SK-MEL-2 melanoma
UACC-62 melanoma = test system: UACC-62 melanoma
HCC-2998 colon = test system: HCC-2998 colon
SK-MEL-28 melanoma = test system: SK-MEL-28 melanoma
HL-60(TB) leukemia = test system: HL-60(TB) leukemia
CCRF-CEM leukemia = test system: CCRF-CEM leukemia
DU-145 prostate = test system: DU-145 prostate
M14 melanoma = test system: M14 melanoma
MALME-3M melanoma = test system: MALME-3M melanoma
OVCAR-3 ovarian = test system: OVCAR-3 ovarian
IGROV1 ovarian = test system: IGROV1 ovarian
ACHN renal = test system: ACHN renal
HS 578T breast = test system: HS 578T breast
HCT-15 colon = test system: HCT-15 colon
OVCAR-5 ovarian = test system: OVCAR-5 ovarian
NCI-H23 lung = test system: NCI-H23 lung
NCI-H522 lung = test system: NCI-H522 lung
SN12C renal = test system: SN12C renal
SF-295 CNS = test system: SF-295 CNS
RPMI-8226 leukemia = test system: RPMI-8226 leukemia
PC-3 prostate = test system: PC-3 prostate
NCI-H460 lung = test system: NCI-H460 lung
OVCAR-4 ovarian = test system: OVCAR-4 ovarian
SF-539 CNS = test system: SF-539 CNS
HOP-92 NSCLC = test system: HOP-92 NSCLC
786-0 renal = test system: 786-0 renal

Question: With `CCOC(=O)C(=Cc1ccccc1Br)C(=O)OCC` as the molecule, how does the TGI (MOLT-4 leukemia) read?
Answer: Its TGI is 5.61 µM.

Question: And the TGI (SK-MEL-5 melanoma)?
Answer: Its TGI is 3.85 µM.

Question: And the TGI (HCT-116 colon)?
Answer: The TGI was greater than 100 µM.

Question: What about the TGI (MCF7 breast) of the same molecule?
Answer: The TGI was greater than 100 µM.

Question: And the TGI (MDA-MB-435)?
Answer: Its TGI is 5.16 µM.

Question: What about the TGI (SNB-75 CNS) of the same molecule?
Answer: The TGI was 75.5 µM.

Question: What about the TGI (EKVX NSCLC) of the same molecule?
Answer: The TGI was 17.3 µM.

Question: What about the TGI (SR leukemia) of the same molecule?
Answer: The TGI was 0.723 µM.

Question: What about the TGI (KM12 colon) of the same molecule?
Answer: The TGI was 4.06 µM.

Question: What about the TGI (HT29 colon) of the same molecule?
Answer: The TGI was 10.9 µM.

Question: What about the TGI (OVCAR-8 ovarian) of the same molecule?
Answer: Its TGI is 5.6 µM.

Question: What about the TGI (SF-268 CNS) of the same molecule?
Answer: Its TGI is 29.1 µM.

Question: And the TGI (SNB-19 CNS)?
Answer: The TGI was 6.01 µM.

Question: And the TGI (HOP-62 NSCLC)?
Answer: The TGI was greater than 100 µM.

Question: And the TGI (BT-549 breast)?
Answer: Its TGI is 7.07 µM.

Question: What about the TGI (RXF 393 renal) of the same molecule?
Answer: Its TGI is 4.97 µM.

Question: What about the TGI (NCI-H226 lung) of the same molecule?
Answer: Its TGI is 8.99 µM.

Question: And the TGI (A549 NSCLC)?
Answer: Its TGI is greater than 100 µM.

Question: And the TGI (UACC-257 melanoma)?
Answer: The TGI was 14.7 µM.

Question: And the TGI (TK-10 renal)?
Answer: The TGI was 8.7 µM.

Question: And the TGI (A498 renal)?
Answer: The TGI was 5.07 µM.

Question: And the TGI (K-562 leukemia)?
Answer: Its TGI is 13.4 µM.

Question: What about the TGI (CAKI-1 renal) of the same molecule?
Answer: Its TGI is 6.83 µM.

Question: What about the TGI (NCI/ADR-RES ovarian) of the same molecule?
Answer: The TGI was greater than 100 µM.

Question: What about the TGI (MDA-MB-231 breast) of the same molecule?
Answer: Its TGI is 36.9 µM.

Question: And the TGI (COLO 205 colon)?
Answer: Its TGI is 6.77 µM.

Question: And the TGI (SK-MEL-2 melanoma)?
Answer: Its TGI is 5.31 µM.

Question: And the TGI (UACC-62 melanoma)?
Answer: Its TGI is 4.79 µM.

Question: And the TGI (HCC-2998 colon)?
Answer: Its TGI is 6.54 µM.

Question: What about the TGI (SK-MEL-28 melanoma) of the same molecule?
Answer: The TGI was 5.82 µM.

Question: And the TGI (HL-60(TB) leukemia)?
Answer: The TGI was 4 µM.

Question: What about the TGI (CCRF-CEM leukemia) of the same molecule?
Answer: The TGI was greater than 100 µM.

Question: What about the TGI (DU-145 prostate) of the same molecule?
Answer: The TGI was 2.68 µM.

Question: And the TGI (M14 melanoma)?
Answer: Its TGI is 2.48 µM.

Question: And the TGI (MALME-3M melanoma)?
Answer: Its TGI is 8.26 µM.

Question: And the TGI (OVCAR-3 ovarian)?
Answer: The TGI was 4.7 µM.

Question: What about the TGI (IGROV1 ovarian) of the same molecule?
Answer: The TGI was 4.62 µM.

Question: And the TGI (ACHN renal)?
Answer: The TGI was 6.01 µM.

Question: And the TGI (HS 578T breast)?
Answer: Its TGI is 30.9 µM.

Question: And the TGI (HCT-15 colon)?
Answer: The TGI was 3.71 µM.

Question: What about the TGI (OVCAR-5 ovarian) of the same molecule?
Answer: Its TGI is 62.5 µM.

Question: And the TGI (NCI-H23 lung)?
Answer: Its TGI is 7.79 µM.

Question: What about the TGI (NCI-H522 lung) of the same molecule?
Answer: The TGI was 4.3 µM.

Question: And the TGI (SN12C renal)?
Answer: The TGI was 15.6 µM.

Question: What about the TGI (SF-295 CNS) of the same molecule?
Answer: Its TGI is 8.88 µM.

Question: And the TGI (RPMI-8226 leukemia)?
Answer: Its TGI is greater than 100 µM.

Question: And the TGI (PC-3 prostate)?
Answer: Its TGI is 14.9 µM.

Question: And the TGI (NCI-H460 lung)?
Answer: The TGI was greater than 100 µM.

Question: And the TGI (OVCAR-4 ovarian)?
Answer: The TGI was 16.5 µM.

Question: What about the TGI (SF-539 CNS) of the same molecule?
Answer: The TGI was 8.32 µM.

Question: And the TGI (HOP-92 NSCLC)?
Answer: Its TGI is 7.57 µM.

Question: What about the TGI (786-0 renal) of the same molecule?
Answer: The TGI was greater than 100 µM.
